Laboratory results: patent US6987122B2, “2-(1H-indol-3-yl)-2-oxo-acetic acid amides with antitumor activity” (Novuspharma S.p.A., priority 2000, dated 2006)

| melting point | SMILES |
| --- | --- |
| 233 to 237 °C | O=C(Nc1nccs1)C(=O)c1cn(Cc2ccc(F)cc2)c2ccccc12 |
| 218 to 220 °C | O=C(Nc1nncs1)C(=O)c1cn(Cc2ccc(F)cc2)c2ccccc12 |
